Assay results published in the NIST ThermoML archive (doi:10.1021/je200793z).

Assays:
[1] = xn = mol fraction of the nth substance listed

CCC(C)CO (stereo not given) [2-methyl-1-butanol] + CCO
surface tension liquid-gas [mN/m], [1]
Conditions | 293.15 K | 298.15 K | 303.15 K | 308.15 K | 313.15 K | 318.15 K | 323.15 K
x1 = 0.0268 | 22.48 | 22.1 | 21.71 | 21.39 | 21.04 | 20.68 | 20.36
x1 = 0.0549 | 22.65 | 22.25 | 21.9 | 21.56 | 21.22 | 20.9 | 20.55
x1 = 0.0845 | 22.76 | 22.37 | 21.99 | 21.67 | 21.33 | 21 | 20.64
x1 = 0.1156 | 22.86 | 22.47 | 22.1 | 21.75 | 21.44 | 21.08 | 20.73
x1 = 0.1484 | 22.96 | 22.54 | 22.17 | 21.82 | 21.49 | 21.12 | 20.81
x1 = 0.183 | 23.01 | 22.62 | 22.23 | 21.89 | 21.54 | 21.2 | 20.86
x1 = 0.2584 | 23.15 | 22.72 | 22.35 | 22 | 21.61 | 21.24 | 20.91
x1 = 0.3433 | 23.28 | 22.86 | 22.46 | 22.11 | 21.76 | 21.37 | 20.98
x1 = 0.4395 | 23.43 | 22.98 | 22.58 | 22.22 | 21.83 | 21.44 | 21.05
x1 = 0.5495 | 23.56 | 23.09 | 22.69 | 22.3 | 21.94 | 21.54 | 21.15
x1 = 0.6765 | 23.72 | 23.25 | 22.82 | 22.41 | 22.02 | 21.61 | 21.27
x1 = 0.8247 | 23.89 | 23.38 | 22.96 | 22.54 | 22.13 | 21.7 | 21.33
x1 = 1 | 24.09 | 23.61 | 23.14 | 22.69 | 22.3 | 21.86 | 21.44

CCC(C)(C)O [2-methylbutan-2-ol] + CCO
surface tension liquid-gas [mN/m], [1]
Conditions | 293.15 K | 298.15 K | 303.15 K | 308.15 K | 313.15 K | 318.15 K | 323.15 K
x1 = 0.0268 | 22.5 | 22.05 | 21.67 | 21.34 | 20.93 | 20.58 | 20.22
x1 = 0.0549 | 22.66 | 22.23 | 21.85 | 21.51 | 21.16 | 20.82 | 20.48
x1 = 0.0845 | 22.78 | 22.36 | 21.98 | 21.64 | 21.3 | 20.97 | 20.62
x1 = 0.1156 | 22.88 | 22.46 | 22.08 | 21.75 | 21.41 | 21.07 | 20.72
x1 = 0.1484 | 22.97 | 22.54 | 22.16 | 21.83 | 21.48 | 21.14 | 20.79
x1 = 0.183 | 23.04 | 22.61 | 22.23 | 21.89 | – | 21.2 | 20.84
x1 = 0.2584 | 23.16 | 22.73 | 22.34 | 21.99 | – | 21.28 | 20.92
x1 = 0.3433 | 23.28 | 22.84 | 22.45 | 22.09 | 21.73 | 21.36 | 21
x1 = 0.4395 | 23.41 | 22.97 | 22.56 | 22.19 | 21.82 | 21.45 | 21.08
x1 = 0.5495 | 23.55 | 23.1 | 22.68 | 22.29 | 21.92 | 21.53 | 21.16
x1 = 0.6765 | 23.7 | 23.24 | 22.81 | 22.4 | 22.02 | 21.62 | 21.23
x1 = 0.8247 | 23.88 | 23.41 | 22.96 | 22.53 | 22.15 | 21.73 | 21.34
x1 = 1 | 24.04 | 23.61 | 23.14 | 22.69 | 22.3 | 21.86 | 21.44

CC(C)CCO [3-methylbutan-1-ol] + CCO
surface tension liquid-gas [mN/m], [1]
Conditions | 293.15 K | 298.15 K | 303.15 K | 308.15 K | 313.15 K | 318.15 K | 323.15 K
x1 = 0.0268 | 22.56 | 22.09 | 21.7 | 21.35 | 20.95 | 20.56 | 20.17
x1 = 0.0549 | 22.78 | 22.32 | 21.94 | 21.59 | 21.19 | 20.81 | 20.44
x1 = 0.0845 | 22.98 | 22.54 | 22.17 | 21.81 | 21.41 | 21.04 | 20.67
x1 = 0.1156 | 23.17 | 22.73 | 22.36 | 22.01 | 21.62 | 21.24 | 20.87
x1 = 0.1484 | 23.33 | 22.9 | 22.53 | 22.17 | 21.78 | 21.41 | 21.04
x1 = 0.183 | 23.49 | 23.05 | 22.68 | 22.32 | 21.92 | 21.55 | 21.17
x1 = 0.2584 | 23.75 | 23.32 | 22.95 | 22.58 | 22.18 | 21.8 | 21.42
x1 = 0.3433 | 23.96 | 23.54 | 23.17 | 22.79 | 22.39 | 22.01 | 21.63
x1 = 0.4395 | 24.13 | 23.72 | 23.36 | 22.97 | 22.57 | 22.19 | 21.81
x1 = 0.5495 | 24.25 | 23.85 | 23.49 | 23.1 | 22.7 | 22.33 | 21.95
x1 = 0.6765 | 24.34 | 23.96 | 23.61 | 23.21 | 22.82 | 22.44 | 22.06
x1 = 0.8247 | 24.41 | 24.05 | 23.71 | 23.29 | 22.89 | 22.51 | 22.12
x1 = 1 | 24.5 | 24.15 | 23.8 | 23.36 | 22.96 | 22.57 | 22.17

CCO [ethanol]
Conditions | surface tension liquid-gas [mN/m]
293.15 K | 22.31
298.15 K | 21.82
303.15 K | 21.41
308.15 K | 21.04
313.15 K | 20.62
318.15 K | 20.22
323.15 K | 19.82

CCO [ethanol] + CCC(C)CO
[1], x2 = 0
Conditions | surface tension liquid-gas [mN/m]
293.15 K | 22.31
298.15 K | 21.82
303.15 K | 21.41
308.15 K | 21.04
313.15 K | 20.62
318.15 K | 20.22
323.15 K | 19.82

CCC(C)CO (stereo not given) [2-methyl-1-butanol]
Conditions | surface tension liquid-gas [mN/m]
293.15 K | 24.09
298.15 K | 23.61
303.15 K | 23.14
308.15 K | 22.69
313.15 K | 22.3
318.15 K | 21.86
323.15 K | 21.44

CCO [ethanol] + CC(C)CCO
[1], x2 = 0
Conditions | surface tension liquid-gas [mN/m]
293.15 K | 22.31
298.15 K | 21.82
303.15 K | 21.41
308.15 K | 21.04
313.15 K | 20.62
318.15 K | 20.22
323.15 K | 19.82

CCO [ethanol] + CCC(C)(C)O
[1], x2 = 0
Conditions | surface tension liquid-gas [mN/m]
293.15 K | 22.31
298.15 K | 21.82
303.15 K | 21.41
308.15 K | 21.04
313.15 K | 20.62
318.15 K | 20.22
323.15 K | 19.82

CC(C)CCO [3-methylbutan-1-ol]
Conditions | surface tension liquid-gas [mN/m]
293.15 K | 24.5
298.15 K | 24.15
303.15 K | 23.8
308.15 K | 23.36
313.15 K | 22.96
318.15 K | 22.57
323.15 K | 22.17

CCC(C)(C)O [2-methylbutan-2-ol]
Conditions | surface tension liquid-gas [mN/m]
293.15 K | 24.04
298.15 K | 23.61
303.15 K | 23.14
308.15 K | 22.69
313.15 K | 22.3
318.15 K | 21.86
323.15 K | 21.44
